Patent publication US20260200944A1, “NOVEL IRAK4 INHIBITOR AND COMPOUND FOR INHIBITING AND DEGRADING IRAK4 PROTEIN, AND PREPARATION METHOD THEREFOR AND USE THEREOF” (DOVETREE MEDICINES UNUS, INC., priority 2022, published 2026)

Target: T1, IRAK4 kinase protein (Homo sapiens, UniProt Q9NWZ3)
T1 sequence (Q9NWZ3 1-460): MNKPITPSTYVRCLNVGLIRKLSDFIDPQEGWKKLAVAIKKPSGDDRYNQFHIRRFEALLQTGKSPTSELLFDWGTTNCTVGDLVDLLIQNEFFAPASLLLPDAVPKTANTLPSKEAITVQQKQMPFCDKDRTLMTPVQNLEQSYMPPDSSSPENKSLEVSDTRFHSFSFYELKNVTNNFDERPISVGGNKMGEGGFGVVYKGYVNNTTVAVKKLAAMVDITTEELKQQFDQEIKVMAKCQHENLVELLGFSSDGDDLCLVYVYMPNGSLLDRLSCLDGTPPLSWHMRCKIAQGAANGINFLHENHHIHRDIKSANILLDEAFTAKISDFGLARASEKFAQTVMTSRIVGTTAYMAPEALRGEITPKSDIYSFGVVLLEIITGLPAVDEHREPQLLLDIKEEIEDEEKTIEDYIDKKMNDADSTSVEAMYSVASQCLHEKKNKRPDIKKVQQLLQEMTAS
Assay: IRAK4 kinase inhibition assay (Cisbio HTRF KinEASE-STK S1 kit)
Format: biochemical
Conditions: IRAK4 10 nM, ATP 200 μM, substrate 1 μM, 37° C. for 2 h, read-out: IRAK4 inhibitory activity IC50
Protocol: In this assay, the Cisbio HTRF KinEASE-STK SI kit (62S1PEB) was used. The assay/detection buffer, STK Substrate 1-biotin, Streptavidin-XL665, and STKAntibody-Crypatete were all contained in the kit.
After the compound/DMSO was added to a 384-well plate (PerkinElmer 6008280) using Echo 665, 5 μL of 2-fold reaction concentration of IRAK4 kinase protein (final concentration: 10 nM) dissolved with an assay buffer [1 volume of 5× kinase buffer+20 mM magnesium chloride (Sigma) solution+1 mM DTT (Alfa Aesar) solution+4 volumes of deionized water] was added. The shallow well plate was sealed, shaken, centrifuged at 1000 rpm for 1 min, and then incubated at room temperature for 5 min. Then, 5 μL of 2-fold reaction concentration of a 1:1 mixture of STK Substrate 1-biotin (final concentration: 1 μM) and ATP (Sigma A1852) (final concentration: 200 μM) formulated with the assay buffer was added. The shallow well plate was sealed, shaken, centrifuged at 1000 rpm for 1 min, and then incubated at 37° C. for 2 h, followed by the addition of 10 μL of a 1:1 mixture of Streptavidin-XL665 (final concentration: 62.5 nM) and STK-antibody-cryptate dissolved with a detection buffer. The shallow well plate was sealed, shaken, centrifuged at 1000 rpm for 1 min, and then incubated at room temperature for 1 h, and then the value at the wavelength of 620 nm/665 nm was read using a microplate reader. The data were analyzed using Prism 9.3 software, and the IC50 value of IRAK4 kinase inhibition was fitted using a four parameter Logistic equation.

Row | Structure (SMILES) | IC50 [µM]
1 | FC(F)c1nn(C2CCCCC2)c2cnc(-n3ccc4ccc(N5CCOCC5)nc43)cc12 [Compound C1] | 5 to 10
2 | N#Cc1cnc2c(-c3cc4c(C(F)F)nn(C5CCCCC5)c4cn3)cnn2c1 [Compound C3i] | 1 to 5
3 | NC(=O)c1cnn2c(-c3cc4c(C(F)F)nn(C5CCCCC5)c4cn3)ccc2c1 [Compound C4ii] | < 1

Second part, the compound after the results:

Row | IC50 [µM] | Structure (SMILES)
4 | > 10 | N#Cc1cnc2c(ccn2-c2cc3c(C(F)F)nn(C4CCCCC4)c3cn2)c1 [Compound C5i]
5 | 1 to 5 | NC(=O)c1cnc2c(ccn2-c2cc3c(C(F)F)nn(C4CCCCC4)c3cn2)c1 [Compound C5ii]
